US20210308077A1, “COMBINATIONS INCLUDING BETA-ADRENORECEPTOR AGONISTS FOR TREATMENT OF PARKINSON`S DISEASE AND MOVEMENT DISORDERS” (The Brigham and Women`s Hospital, Inc., priority 2017, published 2021)

Key:
Parkinson's disease = assay: Norwegian Prescription Database analysis of incident Parkinson's disease; format: in vivo, human
Source text: We included the entire population of Norway alive on 1 Jan. 2004 by linking the Norwegian National Registry (NNR) with the Norwegian Prescription Database (NorPD) using the unique national identification number. The NNR contains information on all residents in Norway, time of immigration, emigration and death. This information was further linked to the Norwegian National Education Database (NNED) to assess level of education of all participants.
This registry contains complete information on all prescribed drugs dispensed at pharmacies to individuals since 2004. Each prescription includes the national identification number, which makes it possible to generate a precise chronological prescription record for individuals over time, and to link this information to other registries. Drugs are classified according to the Anatomical Therapeutic Chemical classification and doses are reported as defined daily dose (DDD). If the national insurance scheme covers the cost of the drug, the prescription also contains the diagnosis the drug was prescribed for (from 2008: ICD-10 and ICPC; before 2008: local diagnostic code).
The first year of prescription of any antiparkinson drug (N04) was considered year of onset of PD. We used the year 2004 as a washout-period to only include incident cases.
To further limit the chance of reverse causality, we only included users who had been prescribed at least 365 DDD or more of propranolol.
The level of education was categorized into primary education, secondary education, undergraduate education or graduate education. Age at study start was categorized in 5 years intervals. […] Outcome was PD as defined above at time of first prescription of an antiparkinson drug. Participants not developing PD were censored at end of follow-up (31 Dec. 2014), at date of death or date of emigration out of Norway, whichever occurred first. To test for dose-response effects, we categorized participants according to the cumulative number of DDD in 2004-2007 and estimated the RR of developing PD in 2008-2014. […] The hazard ratios were interpreted as rate ratios.

[1] = test system: H3K27 acetylation of SNCA promoter and enhancers; assay: chromatin immunoprecipitation for H3K27ac at SNCA promoter and enhancers in SK-N-MC cells; format: cell-based, human; conditions: clenbuterol 10 μM, valproic acid 100 μM, propranolol 100 μM, vs vehicle
Description: Chromatin immunoprecipitation (ChIP) assays were performed using the Simple ChIP Enzymatic Chromatin IP kit protocol as recommended by the manufacturer (Cell Signaling Technology) with slight modifications. Briefly, ChIPs were performed on asynchronously growing SK-N-MC cells treated with clenbuterol (10 μM), valproic acid (100 μM) or propranolol (100 μM). Cross-linking was carried out with 1% formaldehyde for 10 min at room temperature. Cross-linking was subsequently quenched by adding glycine to a final concentration of 1× for 5 min. Cells were collected and washed twice with PBS, then resuspended in 2 mL of lysis buffer (as described in the protocol). After 10 min on ice, cells were treated with micrococcal nuclease and then sonicated to obtain DNA fragments of ˜500 bp as determined by agarose gel electrophoresis with ethidium bromide staining. Protein-DNA complexes were isolated by centrifugation at 10,000 rpm for 10 min. Supernatants with protein-DNA complexes were incubated overnight with rabbit polyclonal antibody directed against acetylated H3K27 (Abcam). Normal rabbit IgG was used as a negative control and Histone H3 rabbit mAb (ChIP formulated) as positive control. 2% of sample was saved as input. Antibody-protein-DNA complexes were further incubated for 2 hours with 30 μl of ChIP-grade Protein G magnetic beads to isolate antibody bound fractions of chromatin. Immuno-complexes were washed with the buffers provided and as described in the kit. Protein-DNA complexes were eluted and cross-links of pull down fractions and inputs (2% of total IP fraction) were reversed by 2 hours incubation in Proteinase K and 5 M NaCl at 65° C. […] 2 μl of immunoprecipitated DNA was analyzed by qPCR using a Power SYBR Green PCR Master mix (Applied Biosystems by Life technologies) on an ABI 7900HT instrument (Applied Biosystems) with the following temperature profile: 3 min of enzyme activation at 95° C. followed by 40 cycles of 95° C. for 15 s and 60° C. for 60 s. Sample from three independent immunoprecipitation assays were analyzed.

Snca mRNA = Snca mRNA in rat primary cortical neurons; format: cell-based; conditions: metaproterenol 5 μM, clenbuterol 20 μM, salbutamol 10 μM, 48 hours
Description: Primary cortical cultures were generated from E18 Sprague-Dawley rat embryos. The cortical region was dissected out in Hank's Balanced Salt Solution buffered with Hepes and dissociated with 0.125% trypsin (Invitrogen) for 17 min at 37 ° C., followed by trituration. Dissociated cells were plated at a density of 5×10^5 cells/well or 2.5×10^5 cells/well in 12-well or 24-well plates, respectively precoated with poly-D lysine (100 μg/mL). The cells were cultured in Neurobasal medium with B-27 supplement (Invitrogen) and glutamax and gentamycin. Half of the medium was changed every 4 days. Cortical neurons were treated with β2AR agonists 10 days post plating. They were then harvested 48 hours post-treatment for mRNA extraction and 72 hours post-treatment for protein extraction.
Total RNA from flash-frozen mice brain tissue, rodent primary cells, human neuroblastoma cells and iPSC-derived neuronal cells was isolated using TRIzol® (Life Technologies) following the manufacturer's protocol. RNA concentration was measured using NanoDrop spectrophotometer (Thermo Fisher Scientific, Wilmington, De.). 2 μg of total RNA was reverse transcribed into cDNA using the High Capacity cDNA Reverse Transcription Kit from Applied Biosystems. Quantitative PCR was performed using TaqMan Universal PCR Master Mix (Applied Biosystems) on an ABI 7900HT instrument (Applied Biosystems) as described previously (31). For mouse brain tissue and rat primary cortical neuron samples, rodent-specific TaqMan Assay on-demand primers and probes were used to assay the relative abundance of target genes, and rodent Rp113 was used as a reference gene to normalize for RNA loading. Similar results were obtained when Actb or Ubc were used as controls for input RNA. For human neuroblastoma and iPSC-derived neuron samples, human TaqMan Assay on-demand probes were used to assay the relative abundance of target genes, and the geometric mean of the three human reference genes RPL13, GUSB and UBC was used to normalize for RNA loading. Expression values were analyzed using the comparative threshold cycle method (31).

Structure (SMILES) | Rate ratio (RR) for Parkinson's disease, age-, sex-adjusted (Parkinson's disease; ever user vs never user, 11 year follow-up of the entire population of Norway, propranolol: at least 365 defined daily doses) | Rate ratio (RR) for Parkinson's disease, multivariate adjusted (Parkinson's disease; ever user vs never user, 11 year follow-up, adjusted for age, sex and level of education, propranolol: at least 365 defined daily doses) | Rate ratio for Parkinson's disease with time lag between first exposure and PD onset (Parkinson's disease; time lags of one and two years, only cardiovascular diagnoses) | H3K27 acetylation across SNCA promoter and two intronic enhancers (ChIP) [1] | Rate ratio (RR) for Parkinson's disease during 2008-2014, multivariate adjusted (Parkinson's disease; High (≥180 DDD) prescribed during 2004-2007, vs never user) | Rate ratio (RR) for Parkinson's disease during 2008-2014, multivariate adjusted (Parkinson's disease; Medium (60-180 DDD) prescribed during 2004-2007, vs never user) | endogenous Snca mRNA (Snca mRNA)
CC(C)NCC(O)COc1cccc2ccccc12 (stereo not drawn) [Propranolol, propranolol] | 2.16 | 2.20 | 1.82 | increased H3K27Ac | – | – | –
CC(C)(C)NCC(O)c1ccc(O)c(CO)c1 (stereo not drawn) [Salbutamol, salbutamol] | – | – | – | – | 0.45 (0.31-0.67) | 0.60 (0.40-0.91) | significantly, but modestly, reduced
CC(C)(C)NCC(O)c1cc(Cl)c(N)c(Cl)c1 (stereo not drawn) [clenbuterol] | – | – | – | reduced H3K27 acetylation | – | – | significantly, but modestly, reduced
